Laboratory results: patent US8658668B2, “PI3 kinase/mTOR dual inhibitor” (Eli Lilly and Company, priority 2011, dated 2014)
In brackets after ≈: the same amount, converted by molar mass.

Assay: Solubility determination
Type: physicochemical
Description: Prepare a 2 mg/mL solution of Example 2 in each of the required media by weighing approximately 1 mg of compound into a vial and add the required volume (i.e. 0.5 mL) of the corresponding media into each vial. Place capped vial on a rotating mixture over night (˜16 hours) at ambient conditions, then filter using 0.22 um Ultrafree-MC filters (Millipore™) and measure pH of filtrate (Orion 720A pH meter). Prepare the sample for HPLC analysis by transferring 100 μL of the filtrate into a HPLC vial and add 900 μL of 50% acetonitrile/water solution.

CO[C@@H](C)Cn1c(=O)n(C)c2cnc3ccc(-c4cncc(C(C)(C)O)c4)cc3c21 [Example 2, 8-[5-(1-Hydroxy-1-methylethyl)pyridin-3-yl]-1-[(2S)-2-methoxypropyl]-3-methyl-1,3-dihydro-2H-imidazo[4,5-c]quinolin-2-one, Form I]
Solubility, Average mg/mL (50 mM phosphate buffer at pH 2, average filtrate pH 2.31): ≧2.0 mg/mL
Solubility, Average mg/mL (50 mM phosphate buffer at pH 4, average filtrate pH 4.92): 1.0524 mg/mL (≈ 2590 µM)
Solubility, Average mg/mL (50 mM phosphate buffer at pH 6, average filtrate pH 6.14): 0.7178 mg/mL (≈ 1770 µM)
Solubility, Average mg/mL (50 mM phosphate buffer at pH 8, average filtrate pH 8.00): 0.6352 mg/mL (≈ 1560 µM)
Solubility, Average mg/mL (0.1N HCl, average filtrate pH 1.15, ~16 hours, ambient): ≧2.0 mg/mL
Solubility, Average mg/mL (Fast, simulated intestinal fluid fasted state, average filtrate pH 6.45): 1.0203 mg/mL (≈ 2510 µM)
Solubility, Average mg/mL (Fed, simulated intestinal fluid fed state, average filtrate pH 5.09): ≧2.0 mg/mL
Solubility, Average mg/mL (SGF, simulated gastric fluid, average filtrate pH 3.52): 1.7529 mg/mL (≈ 4310 µM)
